Data taken from patent US4891369A, “2β-Substituted-methylpenicillanic acid derivatives, and salts and esters thereof” (Taiho Pharmaceutical Company, Limited, priority 1986, dated 1990).
In brackets after ≈: the same amount, converted by molar mass.

Tests used:
Assay in all cases: MIC assay (Japan Society of Chemotherapy), antibacterial activity
Format in all cases: cell-based
[1] = tested on: P. aeruginosa PSE3; conditions: Pseudomonas aeruginosa, piperacillin used singly, 10^6 CFU/ml, 37° C., 20 hours, read-out: MIC piperacillin alone
Protocol: (§1) The minimal inhibitory concentration (MIC) of piperacillin in the presence of 5 μg/ml of the compounds of the present invention against various bacteria were determined by the MIC assay method of Japan Society of Chemotherapy (Chemotherapy 29(1), pp. 76-79, 1981).
(§2) The MIC value of the various compounds according to the invention and piperacillin, as used singly, were also determined. Each test strain was grown on Mueller Hinton Medium (Difco) and used for inoculation after dilution to concentration of 10^6 CFU/ml. The assay media (Mueller Hintoon Medium) containing piperacillin and the compound of the invention in a series of concentrations were inoculated with the test strain and incubated at 37° C. for 20 hours.
(§3) The minimum concentration at which no more than 5 colonies were observed was determined. […] All the test strains used in the above assay were β-lactamase producers.

[2] = tested on: S. aureus 54K; conditions: Staphylococcus aureus, 20 h, read-out: MIC piperacillin alone
Protocol: as §1, §2, §3

[3] = tested on: E. coli 1573E; conditions: Escherichia coli, piperacillin used singly, 10^6 CFU/ml, 37° C., 20 hours, read-out: MIC piperacillin alone
Protocol: as §1, §2, §3

[4] = tested on: E. coli TEM1; conditions: Escherichia coli, TEM1, 20 h, read-out: MIC piperacillin alone
Protocol: as §1, §2, §3

[5] = tested on: P. mirabillis 60; conditions: piperacillin used singly; 10^6 CFU/ml; 37° C., 20 hours; read-out: MIC piperacillin alone
Protocol: as §1, §2, §3

[6] = tested on: Citrobacter 962L; conditions: piperacillin used singly, 10^6 CFU/ml, 37° C., 20 hours, read-out: MIC piperacillin alone
Protocol: as §1, §2, §3

[7] = tested on: E. coli OXA3; conditions: Escherichia coli, OXA3, 20 h, read-out: MIC piperacillin alone
Protocol: as §1, §2, §3

[8] = tested on: Serratia 200L; conditions: piperacillin used singly, 10^6 CFU/ml, 37° C., 20 hours, read-out: MIC piperacillin alone
Protocol: as §1, §2, §3

[9] = tested on: K. pneumoniae 101L; conditions: Klebsiella pneumoniae, piperacillin used singly, 10^6 CFU/ml, 37° C., 20 hours, read-out: MIC piperacillin alone
Protocol: as §1, §2, §3

[10] = tested on: E. coli SHV1; conditions: Escherichia coli, SHV1, 20 h, read-out: MIC piperacillin alone
Protocol: as §1, §2, §3

[11] = tested on: P. aeruginosa PSE4; conditions: Pseudomonas aeruginosa, piperacillin used singly, 10^6 CFU/ml, 37° C., 20 hours, read-out: MIC piperacillin alone
Protocol: as §1, §2, §3

[12] = tested on: Citrobacter 2046E; conditions: piperacillin used singly, 10^6 CFU/ml, 37° C., 20 hours, read-out: MIC piperacillin alone
Protocol: as §1, §2, §3

CCN1CCN(C(=O)N[C@@H](C(=O)N[C@@H]2C(=O)N3[C@@H]2SC(C)(C)[C@@H]3C(=O)O)c2ccccc2)C(=O)C1=O [piperacillin] gave an MIC [1] of 50 µg/mL (≈ 96.6 µM), an MIC [2] of 3.13 µg/mL (≈ 6.05 µM) and an MIC [3] of 6.25 µg/mL (≈ 12.1 µM). It also gave an MIC [4] of 100 µg/mL (≈ 193 µM), an MIC [5] of 1.56 µg/mL (≈ 3.01 µM) and an MIC [6] of 100 µg/mL (≈ 193 µM). For the same compound, the MIC [7] was 3.13 µg/mL (≈ 6.05 µM), the MIC [8] was 25 µg/mL (≈ 48.3 µM) and the MIC [9] was 100 µg/mL (≈ 193 µM). It also gave an MIC [10] of 25 µg/mL (≈ 48.3 µM), an MIC [11] of 200 µg/mL (≈ 386 µM) and an MIC [12] of 25 µg/mL (≈ 48.3 µM).
